These results are taken from US20250179073A1, “TRICYCLIC HETEROCYCLE COMPOUNDS AS IAP ANTAGONISTS” (Ascentage Pharma (Suzhou) Co., Ltd., priority 2022, published 2025).

For one experiment, the system named is MDA-MB-231 cells. Put plainly: Cell proliferation assay (CellTiter-Glo), MDA-MB-231. Format: cell-based. Conditions: Homo sapiens, MDA-MB-231, 72 h, 72 h treatment, Celltiter-Glo luminescence. The method, boiled down: (§1)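 Compounds tested over ten concentrations ([…]) for 72 h on EVSA-T cells in MEM/10% FBS and MDA-MB-231 cells in RPMI-1640/10% FBS, seeded at 10000/well. Luminescent CellTiter-Glo readout; IC50 fitted after normalisation to controls.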

Another experiment deals with EVSA-T cells. Put plainly: Cell proliferation assay (CellTiter-Glo), EVSA-T. Conditions: Homo sapiens, EVSA-T, 72 h, 72 h treatment, Celltiter-Glo luminescence. The class given is cell-based. The method, boiled down:
as §1

With `C[C@@H]1CN(CC(=O)N2CC(C)(C)c3c2cc(Cc2ccc(F)cc2)c2nnc(C#N)n32)[C@@H](CN2CCOC[C@H]2C)CN1` [Compound 153, 4-(4-fluorobenzyl)-8,8-dimethyl-6-(2-((2R,5R)-5-methyl-2-(((R)-3-methylmorpholino)methyl)piperazin-1-yl)acetyl)-7,8-dihydro-6H-pyrrolo[2,3-e][1,2,4]triazolo[4,3-a]pyridine-1-carbonitrile], the IC50 is 38 nM in the experiment with MDA-MB-231 cells and 5 nM in the experiment with EVSA-T cells.

Take `CC(O)c1nc2c(Cc3ccc(F)cc3)cc3c(n2n1)C(C)(C)CN3C(=O)CN1C[C@@H](C)NC[C@@H]1CN1CCOC[C@H]1C` (stereo partly drawn) [Compound 154, 1-(4-(4-fluorobenzyl)-2-(1-hydroxyethyl)-8,8-dimethyl-7,8-dihydro-6H-pyrrolo[2,3-e][1,2,4]triazolo[1,5-a]pyridin-6-yl)-2-((2R,5R)-5-methy 1-2-(((R)-3-methylmorpholino)methyl)piperazin-1-yl)ethan-1-one]: the half-maximal inhibitory concentration (IC50) came to 100 nM in the experiment on MDA-MB-231 cells and 5 nM in the experiment on EVSA-T cells.

As to `C[C@@H]1CN(CC(=O)N2CC(C)(C)c3c2cc(Cc2ccc(F)cc2)c2nc(N4CC(O)C4)nn32)[C@@H](CN2CCOC[C@H]2C)CN1` [Compound 159, 1-(4-(4-fluorobenzyl)-2-(3-hydroxyazetidin-1-yl)-8,8-dimethyl-7,8-dihydro-6H-pyrrolo[2,3-e][1,2,4]triazolo[1,5-a]pyridin-6-yl)-2-((2R,5R)-5-methyl-2-(((R)-3-methylmorpholino)methyl)piperazin-1-yl)ethan-1-one], the IC50 in the experiment with MDA-MB-231 cells was determined as 20 nM; in the experiment on EVSA-T cells, 4 nM.

As for `C[C@@H]1CN(CC(=O)N2CC(C)(C)c3c2cc(Cc2ccc(F)cc2)c2nc(C(F)(F)F)cn32)[C@@H](CN2[C@H](C)COC[C@H]2C)CN1` [Compound 161, 2-((2R,5R)-2-(((3R,5R)-3,5-dimethylmorpholino)methyl)-5-methylpiperazin-1-yl)-1-(4-(4-fluorobenzyl)-8,8-dimethyl-2-(trifluoromethyl)-7,8-dihydro-6H-imidazo[1,2-a]pyrrolo[2,3-e]pyridin-6-yl)ethan-1-one], the figures for the IC50 with MDA-MB-231 cells and in the experiment with EVSA-T cells were 120 nM and 30 nM, respectively.

As to `C[C@@H]1CN(CC(=O)N2CC(C)(C)c3c2cc(Cc2ccc(F)cc2)c2nc(C(F)(F)F)cn32)[C@@H](CN2[C@@H](C)COC[C@@H]2C)CN1` [Compound 162, 2-((2R,5R)-2-(((3S,5S)-3,5-dimethylmorpholino)methyl)-5-methylpiperazin-1-yl)-1-(4-(4-fluorobenzyl)-8,8-dimethyl-2-(trifluoromethyl)-7,8-dihydro-6H-imidazo[1,2-a]pyrrolo[2,3-e]pyridin-6-yl)ethan-1-one], the IC50 was 46 nM with MDA-MB-231 cells and 10 nM with EVSA-T cells.

Turning to `C[C@@H]1CN(CC(=O)N2CC(C)(C)c3c2cc(Cc2ccc(F)cc2)c2nc(C4CCOC4)nn32)[C@@H](CN2CCOC[C@H]2C)CN1` (stereo partly drawn) [Compound 163, 1-(4-(4-fluorobenzyl)-8,8-dimethyl-2-(tetrahydrofuran-3-yl)-7,8-dihydro-6H-pyrrolo[2,3-e][1,2,4]triazolo[1,5-a]pyridin-6-yl)-2-((2R,5R)-5-methyl-2-(((R)-3-methylmorpholino)methyl)piperazin-1-yl)ethan-1-one], the results for the IC50 with MDA-MB-231 cells and in the experiment with EVSA-T cells were 28 nM and 2 nM, respectively.

As to `C[C@@H]1CN(CC(=O)N2CC(C)(C)c3c2cc(Cc2ccc(F)cc2)c2nc(C4CC4)nn32)[C@@H](CN2CCOC[C@H]2C)CN1` [Compound 165, 1-(2-cyclopropyl-4-(4-fluorobenzyl)-8,8-dimethyl-7,8-dihydro-6H-pyrrolo[2,3-e][1,2,4]triazolo[1,5-a]pyridin-6-yl)-2-((2R,5R)-5-methyl-2-(((R)-3-methylmorpholino)methyl)piperazin-1-yl)ethan-1-one], the IC50 came to 21 nM in the experiment on MDA-MB-231 cells and 4 nM in the experiment on EVSA-T cells.

Turning to `C[C@@H]1CN(CC(=O)N2CC(C)(C)c3c2cc(Cc2ccc(F)cc2)c2nc(C(F)(F)F)cn32)[C@@H](CN2CCOC[C@H]2CF)CN1` [Compound 167, 1-(4-(4-fluorobenzyl)-8,8-dimethyl-2-(trifluoromethyl)-7,8-dihydro-6H-imidazo[1,2-a]pyrrolo[2,3-e]pyridin-6-yl)-2-((2R,5R)-2-((3-(fluoromethyl)morpholino)methyl)-5-methylpiperazin-1-yl)ethan-1-one], the results for the IC50 with MDA-MB-231 cells and with EVSA-T cells were 120 nM and 16 nM, respectively.

Consider `C[C@@H]1CN(CC(=O)N2CC(C)(C)c3c2cc(Cc2ccc(F)cc2)c2nc(C(F)(F)F)cn32)[C@@H](CN2CCN(CC(F)(F)F)C[C@H]2C)CN1` [Compound 179, 1-(4-(4-fluorobenzyl)-8,8-dimethyl-2-(trifluoromethyl)-7,8-dihydro-6H-imidazo[1,2-a]pyrrolo[2,3-e]pyridin-6-yl)-2-((2R,5R)-5-methyl-2-(((R)-2-methyl-4-(2,2,2-trifluoroethyl)piperazin-1-yl)methyl)piperazin-1-yl)ethan-1-one], for which the IC50 in the experiment on MDA-MB-231 cells amounted to 180 nM; with EVSA-T cells, 15 nM.

In the case of `C[C@@H]1CN(CC(=O)N2CC3(CCOCC3)c3c2cc(Cc2ccc(F)cc2)c2ncnn32)[C@@H](CN2CCOC[C@H]2C)CN1` [Compound 180, 1-(4′-(4-fluorobenzyl)-2,3,5,6-tetrahydrospiro[pyran-4,8′-pyrrolo[2,3-e][1,2,4]triazolo[1,5-a]pyridin]-6′(7′H)-yl)-2-((2R,5R)-5-methyl-2-(((R)-3-methylmorpholino)methyl)piperazin-1-yl)ethan-1-one], the IC50 was found to be 615 nM with MDA-MB-231 cells and 56 nM with EVSA-T cells.

Turning to `C[C@@H]1CN(CC(=O)N2CC(C)(C)c3c2cc(Cc2ccc(F)cc2)c2nc(C(F)(F)F)cn32)[C@@H](CN2CCN(C3COC3)C[C@H]2C)CN1` [Compound 181, 1-(4-(4-fluorobenzyl)-8,8-dimethyl-2-(trifluoromethyl)-7,8-dihydro-6H-imidazo[1,2-a]pyrrolo[2,3-e]pyridin-6-yl)-2-((2R,5R)-5-methyl-2-(((R)-2-methyl-4-(oxetan-3-yl)piperazin-1-yl)methyl)piperazin-1-yl)ethan-1-one], the IC50 was 97 nM in the experiment on MDA-MB-231 cells and 15 nM in the experiment on EVSA-T cells.

Take `C[C@@H]1CN(CC(=O)N2CC(C)(C)c3c2cc(Cc2ccc(F)cc2)c2ncnn32)[C@@H](CN2CCN(CC#N)C[C@H]2C)CN1` [Compound 182, 2-((R)-4-(((2R,5R)-1-(2-(4-(4-fluorobenzyl)-8,8-dimethyl-7,8-dihydro-6H-pyrrolo[2,3-e][1,2,4]triazolo[1,5-a]pyridin-6-yl)-2-oxoethyl)-5-methylpiperazin-2-yl)methyl)-3-methylpiperazin-1-yl)acetonitrile]: the IC50 amounted to 17 nM in the experiment on MDA-MB-231 cells and 2 nM in the experiment with EVSA-T cells.

In the case of `C[C@@H]1CN(CC(=O)N2CC(C)(C)c3c2cc(Cc2ccc(F)cc2)c2nc(-c4cncnc4)nn32)[C@@H](CN2CCOC[C@H]2C)CN1` [Compound 184, 1-(4-(4-fluorobenzyl)-8,8-dimethyl-2-(pyrimidin-5-yl)-7,8-dihydro-6H-pyrrolo[2,3-e][1,2,4]triazolo[1,5-a]pyridin-6-yl)-2-((2R,5R)-5-methyl-2-(((R)-3-methylmorpholino)methyl)piperazin-1-yl)ethan-1-one], the results for the IC50 in the experiment on MDA-MB-231 cells and in the experiment with EVSA-T cells were 17 nM and 6 nM, respectively.

Take `C[C@@H]1CN(CC(=O)N2CC(C)(C)c3c2cc(Cc2ccc(F)cc2)c2nn(CC#N)c(=O)n32)[C@@H](CN2CCOC[C@H]2C)CN1` [Compound 185, 2-(4-(4-fluorobenzyl)-8,8-dimethyl-6-(2-((2R,5R)-5-methyl-2-(((R)-3-methylmorpholino)methyl)piperazin-1-yl)acetyl)-1-oxo-7,8-dihydro-1H-pyrrolo[2,3-e][1,2,4]triazolo[4,3-a]pyridin-2(6H)-yl)acetonitrile]: the IC50 in the experiment on MDA-MB-231 cells is 23 nM; with EVSA-T cells, 7 nM.

Regarding `C[C@@H]1CN(CC(=O)N2CC(C)(C)c3c2cc(Cc2ccc(F)cc2)c2nc(NC4COC4)nn32)[C@@H](CN2CCOC[C@H]2C)CN1` [Compound 187, 1-(4-(4-fluorobenzyl)-8,8-dimethyl-2-(oxetan-3-ylamino)-7,8-dihydro-6H-pyrrolo[2,3-e][1,2,4]triazolo[1,5-a]pyridin-6-yl)-2-((2R,5R)-5-methyl-2-(((R)-3-methylmorpholino)methyl)piperazin-1-yl)ethan-1-one], the values for the IC50 with MDA-MB-231 cells and in the experiment with EVSA-T cells were 8 nM and 6 nM, respectively.

`C[C@@H]1CN(CC(=O)N2CC(C)(C)c3c2cc(Cc2ccc(F)cc2)c2nc(N4CC5CC(C4)O5)nn32)[C@@H](CN2CCOC[C@H]2C)CN1` [Compound 189, 1-(2-(6-oxa-3-azabicyclo[3.1.1]heptan-3-yl)-4-(4-fluorobenzyl)-8,8-dimethyl-7,8-dihydro-6H-pyrrolo[2,3-e][1,2,4]triazolo[1,5-a]pyridin-6-yl)-2-((2R,5R)-5-methyl-2-(((R)-3-methylmorpholino)methyl)piperazin-1-yl)ethan-1-one]: the IC50 came to 10 nM in the experiment with MDA-MB-231 cells and 2 nM with EVSA-T cells.

On to `C[C@@H]1CN(CC(=O)N2CC(C)(C)c3c2cc(Cc2ccc(F)cc2)c2nn(C4CCOCC4)c(=O)n32)[C@@H](CN2CCOC[C@H]2C)CN1` [Compound 190, 4-(4-fluorobenzyl)-8,8-dimethyl-6-(2-((2R,5R)-5-methyl-2-(((R)-3-methylmorpholino)methyl)piperazin-1-yl)acetyl)-2-(tetrahydro-2H-pyran-4-yl)-2,6,7,8-tetrahydro-1H-pyrrolo[2,3-e][1,2,4]triazolo[4,3-a]pyridin-1-one], for which the IC50 in the experiment with MDA-MB-231 cells amounted to 14 nM; in the experiment with EVSA-T cells, 3 nM.

With `C[C@@H]1CN(CC(=O)N2CC(C)(C)c3c2cc(Cc2ccc(F)cc2)c2nn(Cc4ccccn4)c(=O)n32)[C@@H](CN2CCOC[C@H]2C)CN1` [Compound 192, 4-(4-fluorobenzyl)-8,8-dimethyl-6-(2-((2R,5R)-5-methyl-2-(((R)-3-methylmorpholino)methyl)piperazin-1-yl)acetyl)-2-(pyridin-2-ylmethyl)-2,6,7,8-tetrahydro-1H-pyrrolo[2,3-e][1,2,4]triazolo[4,3-a]pyridin-1-one], the IC50 with MDA-MB-231 cells is 38 nM; with EVSA-T cells, 7 nM.
